Experimental data: ChEMBL document CHEMBL5108027, “An unanticipated discovery of novel naphthalimidopropanediols as potential broad-spectrum antibacterial members” (Eur J Med Chem, 2022)
≈ marks a conversion by molar mass, not a printed value.

What was measured:
Format in all cases: functional
[1] = system: Enterococcus faecalis; experiment: Antibacterial activity against Enterococcus faecalis measured by Muller-Hinton broth based microdilution assay
[2] = system: Staphylococcus aureus; experiment: Antibacterial activity against Staphylococcus aureus ATCC 25923 measured by Muller-Hinton broth based microdilution assay
[3] = system: Staphylococcus aureus; experiment: Antibacterial activity against Staphylococcus aureus measured by Muller-Hinton broth based microdilution assay
[4] = system: Pseudomonas aeruginosa; experiment: Antibacterial activity against Pseudomonas aeruginosa ATCC 27853 measured by Muller-Hinton broth based microdilution assay
[5] = system: Escherichia coli; experiment: Antibacterial activity against Escherichia coli ATCC 25922 measured by Muller-Hinton broth based microdilution assay
[6] = system: Staphylococcus aureus; experiment: Antibacterial activity against methicillin-resistant Staphylococcus aureus N315 measured by Muller-Hinton broth based microdilution assay
[7] = system: Pseudomonas aeruginosa; experiment: Antibacterial activity against Pseudomonas aeruginosa measured by Muller-Hinton broth based microdilution assay
[8] = system: Staphylococcus aureus; experiment: Antibacterial activity against Staphylococcus aureus ATCC 29213 measured by Muller-Hinton broth based microdilution assay
[9] = system: Escherichia coli; experiment: Antibacterial activity against Escherichia coli measured by Muller-Hinton broth based microdilution assay
[10] = system: Klebsiella pneumoniae; experiment: Antibacterial activity against Klebsiella pneumoniae measured by Muller-Hinton broth based microdilution assay
[11] = system: Acinetobacter baumannii; experiment: Antibacterial activity against Acinetobacter baumannii measured by Muller-Hinton broth based microdilution assay

| Compound | MIC [1] [µg/mL] | MIC [2] [µg/mL] | MIC [3] [µg/mL] | MIC [4] [µg/mL] | MIC [5] [µg/mL] | MIC [6] [µg/mL] | MIC [7] [µg/mL] | MIC [8] [µg/mL] | MIC [9] [µg/mL] | MIC [10] [µg/mL] | MIC [11] [µg/mL] |
| --- | --- | --- | --- | --- | --- | --- | --- | --- | --- | --- | --- |
| CN[C@H](CC(C)C)C(=O)N[C@H]1C(=O)N[C@@H](CC(N)=O)C(=O)N[C@H]2C(=O)N[C@H]3C(=O)N[C@H](C(=O)N[C@H](C(=O)O)c4cc(O)cc(O)c4-c4cc3ccc4O)[C@H](O)c3ccc(c(Cl)c3)Oc3cc2cc(c3O[C@@H]2O[C@H](CO)[C@@H](O)[C@H](O)[C@H]2O[C@H]2C[C@](C)(N)[C@H](O)[C@H](C)O2)Oc2ccc(cc2Cl)[C@H]1O [VANCOMYCIN] | 1 (≈ 0.69 µM) | – | – | – | – | – | – | – | – | – | – |
| CCn1cc(/C=N/Nc2ccc3c4c(cccc24)C(=O)N(C(CO)CO)C3=O)c2ccccc21 | 32 (≈ 70.1 µM) | 16 (≈ 35 µM) | 8 (≈ 17.5 µM) | 32 (≈ 70.1 µM) | 32 (≈ 70.1 µM) | 64 (≈ 140 µM) | 16 (≈ 35 µM) | 32 (≈ 70.1 µM) | 16 (≈ 35 µM) | 8 (≈ 17.5 µM) | 64 (≈ 140 µM) |
| N#Cc1ccc(/C=N/Nc2ccc3c4c(cccc24)C(=O)N(C(CO)CO)C3=O)cc1 | 8 (≈ 19.3 µM) | 8 (≈ 19.3 µM) | 4 (≈ 9.65 µM) | 4 (≈ 9.65 µM) | 16 (≈ 38.6 µM) | 32 (≈ 77.2 µM) | 32 (≈ 77.2 µM) | 2 (≈ 4.83 µM) | 32 (≈ 77.2 µM) | 2 (≈ 4.83 µM) | 32 (≈ 77.2 µM) |
| O=C1c2cccc(O)c2C(=O)c2c(O)cc(/C=N/Nc3ccc4c5c(cccc35)C(=O)N(C(CO)CO)C4=O)cc21 | 64 (≈ 116 µM) | 64 (≈ 116 µM) | 32 (≈ 58 µM) | 64 (≈ 116 µM) | 32 (≈ 58 µM) | 64 (≈ 116 µM) | 16 (≈ 29 µM) | 128 (≈ 232 µM) | 8 (≈ 14.5 µM) | 32 (≈ 58 µM) | 64 (≈ 116 µM) |
| O=C1c2cccc3c(N/N=C/c4ccc5ccccc5n4)ccc(c23)C(=O)N1C(CO)CO | 64 (≈ 145 µM) | 64 (≈ 145 µM) | 4 (≈ 9.08 µM) | 8 (≈ 18.2 µM) | 64 (≈ 145 µM) | 2 (≈ 4.54 µM) | 2 (≈ 4.54 µM) | 128 (≈ 291 µM) | 4 (≈ 9.08 µM) | 32 (≈ 72.7 µM) | 64 (≈ 145 µM) |
| O=C1c2cccc3c(N/N=C/c4cccc(F)c4)ccc(c23)C(=O)N1C(CO)CO | 32 (≈ 78.5 µM) | 64 (≈ 157 µM) | 16 (≈ 39.3 µM) | 32 (≈ 78.5 µM) | 64 (≈ 157 µM) | 32 (≈ 78.5 µM) | 32 (≈ 78.5 µM) | 64 (≈ 157 µM) | 64 (≈ 157 µM) | 2 (≈ 4.91 µM) | 64 (≈ 157 µM) |
| O=C1c2cccc3c(N/N=C/c4ccc([N+](=O)[O-])cc4)ccc(c23)C(=O)N1C(CO)CO | 1 (≈ 2.3 µM) | 2 (≈ 4.6 µM) | 2 (≈ 4.6 µM) | 16 (≈ 36.8 µM) | 32 (≈ 73.7 µM) | 64 (≈ 147 µM) | 16 (≈ 36.8 µM) | 64 (≈ 147 µM) | 32 (≈ 73.7 µM) | 32 (≈ 73.7 µM) | 64 (≈ 147 µM) |
| O=C1c2cccc3c(N/N=C/c4ccc(O)c(Cl)c4)ccc(c23)C(=O)N1C(CO)CO | 64 (≈ 146 µM) | 32 (≈ 72.8 µM) | 64 (≈ 146 µM) | 32 (≈ 72.8 µM) | 64 (≈ 146 µM) | 64 (≈ 146 µM) | 8 (≈ 18.2 µM) | 64 (≈ 146 µM) | 16 (≈ 36.4 µM) | 64 (≈ 146 µM) | 64 (≈ 146 µM) |
| O=C1c2cccc3c(N/N=C/c4ccc(OC(F)(F)F)cc4)ccc(c23)C(=O)N1C(CO)CO | 2 (≈ 4.22 µM) | 32 (≈ 67.6 µM) | 4 (≈ 8.45 µM) | 8 (≈ 16.9 µM) | 32 (≈ 67.6 µM) | 32 (≈ 67.6 µM) | 8 (≈ 16.9 µM) | 4 (≈ 8.45 µM) | 32 (≈ 67.6 µM) | 2 (≈ 4.22 µM) | 16 (≈ 33.8 µM) |
| C#CCn1cc(/C=N/Nc2ccc3c4c(cccc24)C(=O)N(C(CO)CO)C3=O)c2ccccc21 | 16 (≈ 34.3 µM) | 8 (≈ 17.1 µM) | 0.5 (≈ 1.07 µM) | 4 (≈ 8.57 µM) | 16 (≈ 34.3 µM) | 8 (≈ 17.1 µM) | 32 (≈ 68.6 µM) | 1 (≈ 2.14 µM) | 64 (≈ 137 µM) | 4 (≈ 8.57 µM) | 16 (≈ 34.3 µM) |
| O=C(O)c1cn(C2CC2)c2cc(N3CCNCC3)c(F)cc2c1=O [CIPROFLOXACIN] | 2 (≈ 6.04 µM) | 0.5 (≈ 1.51 µM) | 2 (≈ 6.04 µM) | – | – | 4 (≈ 12.1 µM) | – | 8 (≈ 24.1 µM) | – | 2 (≈ 6.04 µM) | 2 (≈ 6.04 µM) |
